In ChEMBL document CHEMBL3885861, “Open TG-GATES”:

Species: Rattus norvegicus
Experiment: Open TG-GATES - Regimen: Daily Repeat
Assay type: toxicity, organism-based, Sprague-Dawley
Set-up: regimen Daily Repeat, gender Male, age 6 weeks
Details: in vivo, po, route gavage; for Eos / Hb / Ht / Lym / MCH / MCHC / MCV / Mono / Neu / Plat / RBC / Ret / WBC / APTT / Bas / PT: tissue Blood; for KIDNEY_L / KIDNEY_R / KIDNEY_TOTAL: tissue Kidney; for LIVER: tissue Liver; for ALT / AST / BUN / CRE / Ca / DBIL / GLC / IP / K / LDH / Na / PL / RALB / TBIL / TC / TG / TP / gamma-GTP / ALP: tissue Plasma
[1] = 300 mg/kg, 72 h, dose level Middle, time 3 day
[2] = 300 mg/kg, […], dose level Middle, time 7 day
[3] = 300 mg/kg, […], dose level Middle, time 14 day
[4] = 300 mg/kg, […], dose level Middle, time 28 day
[5] = 1000 mg/kg, 72 h, dose level High, time 3 day
[6] = 1000 mg/kg, […], dose level High, time 7 day
[7] = 1000 mg/kg, […], dose level High, time 14 day
[8] = 1000 mg/kg, […], dose level High, time 28 day

C[C@H](CS)C(=O)N1CCC[C@H]1C(=O)O [CAPTOPRIL]
Eos [1]: 1.2% | Hb [1]: 13.3 g/dL | Ht [1]: 40.2% | Lym [1]: 79.4% | MCH [1]: 21.4 pg | MCHC [1]: 33.1% | MCV [1]: 64.5 fL | Mono [1]: 4.2% | Neu [1]: 15.2% | Plat [1]: 111.4 x10_4/uL | RBC [1]: 623.2 x10_4/ul | Ret [1]: 7.7% | WBC [1]: 92.7 x10_2/uL | KIDNEY_L [1]: 1.1 g | KIDNEY_R [1]: 1.1 g | KIDNEY_TOTAL [1]: 2.2 g | LIVER [1]: 12.3 g | ALT [1]: 40.6 IU/L | AST [1]: 61 IU/L | BUN [1]: 17.8 mg/dL | CRE [1]: 0.5 mg/dL | Ca [1]: 11.5 mg/dL | DBIL [1]: 0.022 mg/dL | GLC [1]: 195.4 mg/dL | IP [1]: 8.8 mg/dL | K [1]: 5.1 meq/L | LDH [1]: 89 IU/L | Na [1]: 136 meq/L | PL [1]: 143.4 mg/dL | RALB [1]: 4.2 g/dL | TBIL [1]: 0.4 mg/dL | TC [1]: 76 mg/dL | TG [1]: 73.8 mg/dL | TP [1]: 6.1 g/dL | gamma-GTP [1]: 0.8 IU/L | TERMINAL_BW [2]: 259.5 g | TERMINAL_BW [3]: 288.5 g | TERMINAL_BW [4]: 322 g | APTT [2]: 16.4 s | Bas [2]: 0% | Eos [2]: 1.2% | Hb [2]: 13.3 g/dL | Ht [2]: 39.7% | Lym [2]: 85.2% | MCH [2]: 21.2 pg | MCHC [2]: 33.4% | MCV [2]: 63.6 fL | Mono [2]: 4.6% | Neu [2]: 9.2% | Plat [2]: 127.2 x10_4/uL | RBC [2]: 625.8 x10_4/ul | Ret [2]: 4.7% | WBC [2]: 127.6 x10_2/uL | APTT [3]: 16.6 s | Bas [3]: 0% | Eos [3]: 1% | Hb [3]: 13 g/dL | Ht [3]: 38.6% | Lym [3]: 83.2% | MCH [3]: 20.5 pg | MCHC [3]: 33.7% | MCV [3]: 60.7 fL | Mono [3]: 4% | Neu [3]: 11.4% | PT [3]: 11.7 s | Plat [3]: 128.4 x10_4/uL | RBC [3]: 636.4 x10_4/ul | Ret [3]: 4.4% | WBC [3]: 183.2 x10_2/uL | APTT [4]: 15.5 s | Bas [4]: 0% | Eos [4]: 1% | Hb [4]: 14 g/dL | Ht [4]: 41.6% | Lym [4]: 82.2% | MCH [4]: 19.3 pg | MCHC [4]: 33.7% | MCV [4]: 57.4 fL | Mono [4]: 3.6% | Neu [4]: 13.6% | PT [4]: 11.9 s | Plat [4]: 112.2 x10_4/uL | RBC [4]: 724.6 x10_4/ul | Ret [4]: 2.9% | WBC [4]: 165.2 x10_2/uL | KIDNEY_L [2]: 1.2 g | KIDNEY_R [2]: 1.2 g | KIDNEY_TOTAL [2]: 2.3 g | KIDNEY_L [3]: 1.2 g | KIDNEY_R [3]: 1.3 g | KIDNEY_TOTAL [3]: 2.5 g | KIDNEY_L [4]: 1.3 g | KIDNEY_R [4]: 1.4 g | KIDNEY_TOTAL [4]: 2.7 g | LIVER [2]: 11.7 g | LIVER [3]: 12.4 g | LIVER [4]: 12.4 g | ALT [2]: 32.8 IU/L | AST [2]: 63.2 IU/L | BUN [2]: 20.6 mg/dL | CRE [2]: 0.6 mg/dL | Ca [2]: 11 mg/dL | DBIL [2]: 0.006 mg/dL | GLC [2]: 192 mg/dL | IP [2]: 8 mg/dL | K [2]: 4.8 meq/L | LDH [2]: 109.6 IU/L | Na [2]: 138.2 meq/L | PL [2]: 132 mg/dL | RALB [2]: 3.8 g/dL | TBIL [2]: 0.3 mg/dL | TC [2]: 72.8 mg/dL | TG [2]: 73.4 mg/dL | TP [2]: 5.8 g/dL | gamma-GTP [2]: 2.2 IU/L | ALP [3]: 824.2 IU/L | ALT [3]: 40.2 IU/L | AST [3]: 66.6 IU/L | BUN [3]: 24.4 mg/dL | CRE [3]: 0.6 mg/dL | DBIL [3]: 0.012 mg/dL | GLC [3]: 203.6 mg/dL | IP [3]: 7.8 mg/dL | K [3]: 4.6 meq/L | LDH [3]: 86.6 IU/L | Na [3]: 135.2 meq/L | PL [3]: 151 mg/dL | RALB [3]: 3.8 g/dL | TBIL [3]: 0.3 mg/dL | TC [3]: 81.4 mg/dL | TG [3]: 67 mg/dL | TP [3]: 5.9 g/dL | gamma-GTP [3]: 1.4 IU/L | ALP [4]: 617.4 IU/L | ALT [4]: 35.4 IU/L | AST [4]: 65.8 IU/L | BUN [4]: 30.8 mg/dL | CRE [4]: 0.6 mg/dL | DBIL [4]: 0.024 mg/dL | GLC [4]: 191.2 mg/dL | IP [4]: 7.4 mg/dL | K [4]: 4.6 meq/L | Na [4]: 136.8 meq/L | PL [4]: 156.6 mg/dL | RALB [4]: 4 g/dL | TBIL [4]: 0.4 mg/dL | TC [4]: 84.8 mg/dL | TG [4]: 79 mg/dL | TP [4]: 6.1 g/dL | gamma-GTP [4]: 0.4 IU/L | TERMINAL_BW [5]: 233.8 g | APTT [5]: 16.1 s | Bas [5]: 0% | Eos [5]: 1.2% | Hb [5]: 13.3 g/dL | Ht [5]: 39.9% | Lym [5]: 80.6% | MCH [5]: 21.3 pg | MCHC [5]: 33.2% | MCV [5]: 64 fL | Mono [5]: 5.2% | Neu [5]: 13.4% | PT [5]: 11.1 s | Plat [5]: 122.3 x10_4/uL | RBC [5]: 623.8 x10_4/ul | Ret [5]: 6.2% | KIDNEY_L [5]: 1.1 g | KIDNEY_R [5]: 1.1 g | KIDNEY_TOTAL [5]: 2.2 g | LIVER [5]: 11 g | ALP [5]: 971.8 IU/L | ALT [5]: 40.6 IU/L | AST [5]: 63 IU/L | BUN [5]: 22.6 mg/dL | CRE [5]: 0.5 mg/dL | Ca [5]: 11.2 mg/dL | DBIL [5]: 0.016 mg/dL | GLC [5]: 193.4 mg/dL | IP [5]: 8.2 mg/dL | K [5]: 5 meq/L | LDH [5]: 90.4 IU/L | Na [5]: 135.2 meq/L | PL [5]: 148.8 mg/dL | RALB [5]: 3.9 g/dL | TBIL [5]: 0.4 mg/dL | TC [5]: 82.4 mg/dL | TG [5]: 93.4 mg/dL | TP [5]: 5.8 g/dL | gamma-GTP [5]: 1.4 IU/L | TERMINAL_BW [6]: 249.2 g | TERMINAL_BW [7]: 310.3 g | TERMINAL_BW [8]: 359.7 g | APTT [6]: 16.3 s | Bas [6]: 0% | Eos [6]: 1.2% | Hb [6]: 12.7 g/dL | Ht [6]: 37.9% | Lym [6]: 82.4% | MCH [6]: 21.3 pg | MCHC [6]: 33.5% | MCV [6]: 63.6 fL | Mono [6]: 4.6% | Neu [6]: 11.8% | Plat [6]: 123.8 x10_4/uL | RBC [6]: 595.6 x10_4/ul | Ret [6]: 4% | WBC [6]: 141 x10_2/uL | APTT [7]: 16.7 s | Bas [7]: 0% | Eos [7]: 1.2% | Hb [7]: 12.7 g/dL | Ht [7]: 37.6% | Lym [7]: 81.8% | MCH [7]: 20.6 pg | MCHC [7]: 33.6% | MCV [7]: 61.4 fL | Mono [7]: 4.6% | Neu [7]: 12.4% | PT [7]: 11.5 s | Plat [7]: 122.1 x10_4/uL | RBC [7]: 614 x10_4/ul | Ret [7]: 3.1% | WBC [7]: 160.2 x10_2/uL | APTT [8]: 16.4 s | Bas [8]: 0% | Eos [8]: 1.2% | Hb [8]: 13.4 g/dL | Ht [8]: 40.3% | Lym [8]: 90.2% | MCH [8]: 20 pg | MCHC [8]: 33.2% | MCV [8]: 60.1 fL | Mono [8]: 2.8% | Neu [8]: 6% | PT [8]: 11.9 s | Plat [8]: 96.2 x10_4/uL | RBC [8]: 671.8 x10_4/ul | Ret [8]: 3.7% | WBC [8]: 236.5 x10_2/uL | KIDNEY_L [6]: 1.2 g | KIDNEY_R [6]: 1.3 g | KIDNEY_TOTAL [6]: 2.5 g | KIDNEY_L [7]: 1.3 g | KIDNEY_R [7]: 1.4 g | KIDNEY_TOTAL [7]: 2.7 g | KIDNEY_L [8]: 1.5 g | KIDNEY_R [8]: 1.6 g | KIDNEY_TOTAL [8]: 3.1 g | LIVER [7]: 13.5 g | LIVER [8]: 15.1 g | ALP [6]: 755.6 IU/L | ALT [6]: 32.2 IU/L | AST [6]: 53.8 IU/L | BUN [6]: 46.4 mg/dL | CRE [6]: 0.6 mg/dL | DBIL [6]: 0.012 mg/dL | GLC [6]: 192.8 mg/dL | IP [6]: 7.7 mg/dL | K [6]: 5.2 meq/L | LDH [6]: 78.6 IU/L | Na [6]: 136.8 meq/L | PL [6]: 141.4 mg/dL | RALB [6]: 3.5 g/dL | TBIL [6]: 0.4 mg/dL | TC [6]: 88.2 mg/dL | TG [6]: 52.6 mg/dL | TP [6]: 5.6 g/dL | gamma-GTP [6]: 2 IU/L | ALP [7]: 859.4 IU/L | ALT [7]: 35.2 IU/L | AST [7]: 58.8 IU/L | BUN [7]: 38.8 mg/dL | CRE [7]: 0.6 mg/dL | DBIL [7]: 0.008 mg/dL | GLC [7]: 191.8 mg/dL | IP [7]: 7.8 mg/dL | K [7]: 5 meq/L | LDH [7]: 78.2 IU/L | Na [7]: 133.8 meq/L | PL [7]: 151.8 mg/dL | RALB [7]: 3.7 g/dL | TBIL [7]: 0.4 mg/dL | TC [7]: 80.6 mg/dL | TG [7]: 85.6 mg/dL | TP [7]: 5.7 g/dL | gamma-GTP [7]: 1.2 IU/L | ALP [8]: 768 IU/L | ALT [8]: 45 IU/L | AST [8]: 71.5 IU/L | BUN [8]: 32 mg/dL | CRE [8]: 0.6 mg/dL | DBIL [8]: 0.015 mg/dL | GLC [8]: 207 mg/dL | IP [8]: 7.7 mg/dL | K [8]: 4.6 meq/L | LDH [8]: 110.2 IU/L | Na [8]: 135.8 meq/L | PL [8]: 127.8 mg/dL | RALB [8]: 3.6 g/dL | TBIL [8]: 0.5 mg/dL | TC [8]: 69 mg/dL | TG [8]: 72.8 mg/dL | TP [8]: 5.7 g/dL | gamma-GTP [8]: 0.8 IU/L
